In PubChem BioAssay (NCI):
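These data come from cells grown in 96-well plates and exposed to compound for 48 hours at five concentrations. At the GI50, growth is halved. TGI: total growth inhibition.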

Key:
Assay in all cases: NCI anticancer screen, dose series, 48 h
A549 NSCLC = tested on: A549 NSCLC
CAKI-1 renal = tested on: CAKI-1 renal
HL-60(TB) leukemia = tested on: HL-60(TB) leukemia
KM12 colon = tested on: KM12 colon
M14 melanoma = tested on: M14 melanoma
MOLT-4 leukemia = tested on: MOLT-4 leukemia
NCI-H460 lung = tested on: NCI-H460 lung
NCI/ADR-RES ovarian = tested on: NCI/ADR-RES ovarian
OVCAR-4 ovarian = tested on: OVCAR-4 ovarian
RXF 393 renal = tested on: RXF 393 renal

Row | SMILES | GI50 (A549 NSCLC) | TGI (A549 NSCLC) | GI50 (CAKI-1 renal) | TGI (CAKI-1 renal) | GI50 (HL-60(TB) leukemia) | TGI (HL-60(TB) leukemia) | GI50 (KM12 colon) | TGI (KM12 colon) | GI50 (M14 melanoma) | TGI (M14 melanoma) | GI50 (MOLT-4 leukemia) | TGI (MOLT-4 leukemia) | GI50 (NCI-H460 lung) | TGI (NCI-H460 lung) | GI50 (NCI/ADR-RES ovarian) | TGI (NCI/ADR-RES ovarian) | GI50 (OVCAR-4 ovarian) | TGI (OVCAR-4 ovarian) | GI50 (RXF 393 renal) | TGI (RXF 393 renal)
1 | CCN(CC)Cc1cc(Nc2cc(C(F)(F)F)c(C#N)c3nc4ccccc4n23)ccc1O | 3.17 µM | 12.5 µM | 1.77 µM | 11.2 µM | 2.96 µM | 8.37 µM | 2.42 µM | 8.22 µM | 2.73 µM | 13.9 µM | 2.46 µM | 75 µM | 1.59 µM | 10.7 µM | 2.64 µM | 15.9 µM | 1 µM | 2.59 µM | 1.8 µM | 5.81 µM
2 | O=C(Nc1nc2c(s1)CCc1c-2c(Br)n(Cc2ccccc2)c1Br)c1ccccc1 | 3.12 µM | 23.1 µM | 9.89 µM | > 100 µM | 45.3 µM | > 100 µM | 6.19 µM | > 100 µM | 9.94 µM | > 100 µM | 22.7 µM | 64.4 µM | 3.82 µM | > 100 µM | 21 µM | > 100 µM | 1.8 µM | 7.54 µM | 2.01 µM | 7.69 µM
3 | CCOC(=O)C1=C(C)N(Cc2ccc(Cl)cc2Cl)[C@]2(C#N)C(O)=C(Cl)C(Cl)=C(O)[C@]12C#N | > 100 µM | > 100 µM | > 100 µM | > 100 µM | 31.9 µM | 76.9 µM | > 100 µM | > 100 µM | > 100 µM | > 100 µM | 27.9 µM | 61.6 µM | > 100 µM | > 100 µM | 0.19 µM | 15.6 µM | > 100 µM | > 100 µM | 30.6 µM | 89.1 µM
4 | Cc1cc(-c2ccco2)cc(C)c1/C=C/c1cncc(-c2nn[nH]n2)c1 | > 25 µM | > 25 µM | > 25 µM | > 25 µM | > 25 µM | > 25 µM | > 25 µM | > 25 µM | > 25 µM | > 25 µM | > 25 µM | > 25 µM | > 25 µM | > 25 µM | > 25 µM | > 25 µM | > 25 µM | > 25 µM | > 25 µM | > 25 µM
5 | N#Cc1cccc(C2C3=C(COC3=O)N(CCO)c3cc4c(cc32)CCC4)c1 (stereo not given) | 0.23 µM | > 50 µM | 0.109 µM | > 50 µM | 0.132 µM | 0.383 µM | 0.136 µM | > 50 µM | 0.0832 µM | 0.293 µM | 0.203 µM | > 50 µM | 0.16 µM | 5.19 µM | 0.15 µM | > 50 µM | 0.374 µM | > 50 µM | 0.119 µM | > 50 µM
6 | CN(c1ccc(NC(=O)NCCN2CCOCC2)cc1)c1ccnc(Nc2ccc(CS(C)(=O)=O)cc2)n1 | > 25 µM | > 25 µM | > 25 µM | > 25 µM | > 25 µM | > 25 µM | 12.2 µM | > 25 µM | > 25 µM | > 25 µM | > 25 µM | > 25 µM | > 25 µM | > 25 µM | > 25 µM | > 25 µM | 19.8 µM | > 25 µM | > 25 µM | > 25 µM
7 | CCN(CC)CCS(=O)(=O)CCNc1ccnc2cc(Cl)ccc12 | 4.12 µM | > 61.7 µM | 0.782 µM | 6.08 µM | 1.37 µM | 20 µM | 2.41 µM | > 24.3 µM | 2.53 µM | 9.33 µM | 1.34 µM | 49 µM | 2.74 µM | > 25.7 µM | 1.12 µM | 4.73 µM | 2.07 µM | > 62.2 µM | 1.32 µM | 5.8 µM
8 | CCc1ccc(C2=NN(c3ccc(S(C)(=O)=O)cc3)C(=O)CC2)cc1 | 0.913 µM | > 100 µM | 1.65 µM | > 28.7 µM | 1.2 µM | 6.35 µM | 0.817 µM | > 96.1 µM | 0.639 µM | > 100 µM | 1.53 µM | 17.5 µM | 1.28 µM | 13.1 µM | 0.416 µM | 2.6 µM | 7.14 µM | > 91.5 µM | 2.05 µM | 15.4 µM
9 | O=c1c2ccccc2n2cnc3ccc(NCCNCCO)c1c32 | – | 3.66 µM | – | 9.46 µM | – | 18.5 µM | – | 5.72 µM | – | 8.07 µM | – | 10.3 µM | – | 7.58 µM | – | 16.5 µM | – | 4.57 µM | – | 4.65 µM
10 | C=CC[PH+](c1ccccc1)c1ccccc1.C=CC[PH+](c1ccccc1)c1ccccc1.[Pt+2].[S-]c1ncccn1.[S-]c1ncccn1 | 26.3 µM | > 100 µM | 7.66 µM | 29.2 µM | 7.95 µM | 90.2 µM | 28.4 µM | > 100 µM | 5.67 µM | 31.9 µM | 3.26 µM | > 100 µM | 18.5 µM | 48.1 µM | 22.9 µM | > 100 µM | 5.35 µM | > 100 µM | 4.67 µM | 18.3 µM
